The values below come from patent publication US9381381B2, “Treatment of nail infections with no” (Aberdeen University, priority 2001, dated 2016).

Each structure is given as a SMILES string.

For one data set, the system named is onychomycosis. The settings on record: cited from earlier work; for Safety concerns: in vivo, po.
In a further data set the test system is A. niger. The experiment in a line: Franz cell nail bioassay for anti-fungal gas penetration across a human nail. Format: cell-based, Aspergillus niger. The settings on record: 4 applications every 2 h 10 min, read after 24 hours; agar 8 mm below nail. The method, then:
After the agar had cooled and set, 25 μl of an A. niger spore suspension was pipetted onto the surface of the agar and a section of human nail fitted in an air-tight manner above the outlet hole, and clamped in place. The cells were then incubated at 32° C. for 24 h to obtain a carpet of mycelium.
The top of the funnel for all of the Franz cells was then covered with Parafilm. The cells were left at room temperature. After a period of 2 h 10 min, the solutions in each Franz cell were removed and replaced with an equivalent solution and the process repeated every 2 h and 10 min for a further […] applications, giving a total of 4 applications. After the final application of solution, the cells were left covered at room temperature, to allow slow growth of the organism for 24 h.

Turning to `CN(C/C=C/C#CC(C)(C)C)Cc1cccc2ccccc12` [terbinafine], the Safety concerns result in the data set on onychomycosis was “liver toxicity, severe skin reactions and drug interactions”. In addition, the Cure rates with onychomycosis (oral treatment) is reported as roughly 70%.

As for `CCC(C)n1ncn(-c2ccc(N3CCN(c4ccc(OCC5COC(Cn6cncn6)(c6ccc(Cl)cc6Cl)O5)cc4)CC3)cc2)c1=O` (centres unmarked) [itraconazole], the Safety concerns entry in the data set on onychomycosis was “liver toxicity, severe skin reactions and drug interactions”.

With `O=NO` [sodium nitrite], the “Growth of A. niger mycelium under human nail” value in the data set on A. niger was “full carpet of growth of mycelium”.

`O=C(O)CC(O)(CC(=O)O)C(=O)O` [citric acid]: the “Growth of A. niger mycelium under human nail” value in the data set with A. niger is reported as “full carpet of growth of mycelium”.
